Patent US5475014A, “Oxazolidone derivative” (Eisai Co., Ltd., priority 1991, dated 1995)

Assays:
MAO-A = biological target: T1, MAO-A (Rattus norvegicus, UniProt P21396); experiment: MAO-A inhibition activity with rat forebrain (14C-5-HT substrate); type: biochemical, rat (male Wistar); conditions: 5-HT 200 μM, read-out: Inhibiting activity MAO-A, IC50
T1 construct: suspension of 1 part by volume of the forebrains of male Wistar rats; from tissue; host or cells: forebrain of male Wistar rats, suspension in potassium phosphate buffer
T1 sequence (P21396 1-526): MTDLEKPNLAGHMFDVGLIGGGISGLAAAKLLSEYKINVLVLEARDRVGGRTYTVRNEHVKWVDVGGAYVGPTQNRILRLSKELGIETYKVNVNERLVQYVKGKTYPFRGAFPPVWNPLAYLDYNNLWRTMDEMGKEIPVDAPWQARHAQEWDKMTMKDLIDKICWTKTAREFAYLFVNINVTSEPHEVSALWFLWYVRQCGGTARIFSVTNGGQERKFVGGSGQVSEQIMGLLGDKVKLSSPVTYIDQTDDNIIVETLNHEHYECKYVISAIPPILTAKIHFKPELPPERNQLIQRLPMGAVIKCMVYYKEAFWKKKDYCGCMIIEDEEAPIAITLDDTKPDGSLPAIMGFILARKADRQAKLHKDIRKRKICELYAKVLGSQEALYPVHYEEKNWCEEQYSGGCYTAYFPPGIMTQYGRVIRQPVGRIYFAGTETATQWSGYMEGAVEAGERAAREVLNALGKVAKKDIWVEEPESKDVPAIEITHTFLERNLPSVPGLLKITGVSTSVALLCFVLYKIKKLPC
Method: Determination of MAO inhibition activity with the use of rat forebrain:
The MAO inhibition activity was determined by a method of Prada et al. (J. Pharmacol. Exp. Ther., 248, 400-414 (1989)).
The enzyme reaction was conducted in 300 μl of a solution having the following composition:
^14 C-labelled enzyme substrate
The enzyme source used was a suspension of 1 part by volume of the forebrains of male Wistar rats in 5 parts by volume of a 0.1M potassium phosphate buffer (pH 7.4). The enzyme source was mixed with the test compound and the mixture was prewarmed at 37° C. for 10 min. Then the enzyme substrate was added thereto to initiate the enzyme reaction. After 10 min, 200 μl of 2N hydrochloric acid was added to terminate the reaction.
As the substrates for MAO-A and MAO-B, 5-HT (serotonin) and PEA (β-phenethylamine) each labelled with ^14 C were used, respectively. The specific radioactivities of 5-HT and PEA were regulated to 11.1 MBq/mmol and 29.6 MBq/mmol, respectively, and the concentrations of them were 200 μM and 20 μM, respectively, in the reaction.
The test compound was dissolved in distilled water so that an intended concentration could be obtained in the enzyme reaction. When the test compound was insoluble in water, it was dissolved in dimethyl sulfoxide to obtain a 10% solution.
Diethyl ether and n-heptane were used as […], respectively. After the termination of the enzyme reaction, 3 ml of the solvent was added to the reaction mixture and shaken for 10 min. After centrifugation at 3,000 rpm for about 10 min, the lower aqueous layer was frozen in dry ice/acetone. The upper organic layer was recovered by decantation and the radioactivity thereof was determined with a liquid scintillation counter.
The inhibiting activities of the test compounds against MAO A and MAO B are given at the concentrations of 10^-7 M and 10^-6 M or by IC50 values.

MAO-B = biological target: T2, MAO-B (Rattus norvegicus, UniProt P19643); experiment: MAO-B inhibition activity with rat forebrain (14C-PEA substrate); type: biochemical, rat (male Wistar); conditions: 10^-5 M, read-out: Inhibiting activity MAO-B (at 10^-5 M)
T2 construct: suspension of 1 part by volume of the forebrains of male Wistar rats; from tissue; host or cells: forebrain of male Wistar rats, suspension in potassium phosphate buffer
T2 sequence (P19643 1-520): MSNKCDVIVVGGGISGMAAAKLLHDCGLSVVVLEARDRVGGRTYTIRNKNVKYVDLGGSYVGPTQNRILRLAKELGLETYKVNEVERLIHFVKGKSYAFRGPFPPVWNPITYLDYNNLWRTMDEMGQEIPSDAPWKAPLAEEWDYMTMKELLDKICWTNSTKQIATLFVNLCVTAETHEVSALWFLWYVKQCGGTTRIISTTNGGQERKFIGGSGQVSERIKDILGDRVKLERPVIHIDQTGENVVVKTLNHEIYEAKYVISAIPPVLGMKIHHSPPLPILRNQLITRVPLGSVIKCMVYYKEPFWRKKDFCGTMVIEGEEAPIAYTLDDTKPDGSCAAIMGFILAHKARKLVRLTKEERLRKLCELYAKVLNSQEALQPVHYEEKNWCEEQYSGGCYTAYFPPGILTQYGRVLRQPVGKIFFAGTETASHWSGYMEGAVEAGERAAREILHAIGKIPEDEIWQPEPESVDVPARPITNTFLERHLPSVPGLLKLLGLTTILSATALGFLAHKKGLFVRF

COCC1CN(c2ccc3nc(C(C)(O)CCC#N)sc3c2)C(=O)O1 (centres unmarked) [Example 37]
IC50 (MAO-A): 45 nM | inhibition at 10 µM (MAO-B): 35%
